Measurements: ChEMBL document CHEMBL1201862, “PubChem BioAssay data set” (2004)
Active and inactive are the calls of the source.

Experiments:
[1] = biological target: Protein-tyrosine kinase 2-beta (Homo sapiens, UniProt Q14289);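 note: potency of inhibitors of PYK2 kinase phosphorylation of poly-GT substrate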
[2] = biological target: T1, Polyadenylate-binding protein 1 (Homo sapiens, UniProt P11940); test: PABP1 MLLE–PAM2 interaction inhibitors, dose response, miRNA deadenylation inhibitor project, biochemical, fluorescence polarization, Cy5-PAM2 peptide, secondary (AID 602260); assay type: functional; details: read-out: IC50_Mean
[3] = biological target: T1, Polyadenylate-binding protein 1; test: PABP1 MLLE–PAM2 binding inhibitor potency, dose response, biochemical, fluorescence polarization, FITC-PAM2 peptide (AID 602259); assay type: functional; details: read-out: IC50_Mean
Major prion protein = Major prion protein (Homo sapiens, UniProt P04156); assay type: functional, cell-based
[4] = cytotoxicity in HEK-293T cells, dose response, cytotoxicity control for TCR NF-kB inhibitor project, luminescence, T-cell screen hits (AID 489026); assay type: functional, cell-based;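 note: cells exposed to compound about 14 hours before the viability readout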
[5] = CEM21 lymphoblast cell cytotoxicity, dose response, cytotoxicity control for viral fusion inhibitor project, CellTiter-Glo luminescence, cherry-picked (AID 652042); assay type: functional, cell-based;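 note: potency for signal decrease meaning cytotoxicity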
Paired box protein Pax-8 = Paired box protein Pax-8 (Homo sapiens, UniProt Q06710); test: inhibitors of PAX8-driven TPO luciferase reporter, dose response, RMG-I cells, cherry-pick (AID 687027); assay type: functional, cell-based;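 note: luciferase reporter driven by Pax8 target thyroperoxidase promoter measured by SteadyGlo luminescence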
[6] = inhibitors of clade B AD8 Env fusion, dose response, cell-based, cherry-pick (AID 652062); assay type: functional;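 note: luciferase signal from cell-cell fusion driven by HIV-1 clade B AD8 Env; potency is for inhibitors of fusion seen as a drop in luminescence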
[7] = biological target: T2, Histone-lysine N-methyltransferase NSD2 (Homo sapiens, UniProt O96028); assay type: biochemical
T2 sequence (O96028 whole entry): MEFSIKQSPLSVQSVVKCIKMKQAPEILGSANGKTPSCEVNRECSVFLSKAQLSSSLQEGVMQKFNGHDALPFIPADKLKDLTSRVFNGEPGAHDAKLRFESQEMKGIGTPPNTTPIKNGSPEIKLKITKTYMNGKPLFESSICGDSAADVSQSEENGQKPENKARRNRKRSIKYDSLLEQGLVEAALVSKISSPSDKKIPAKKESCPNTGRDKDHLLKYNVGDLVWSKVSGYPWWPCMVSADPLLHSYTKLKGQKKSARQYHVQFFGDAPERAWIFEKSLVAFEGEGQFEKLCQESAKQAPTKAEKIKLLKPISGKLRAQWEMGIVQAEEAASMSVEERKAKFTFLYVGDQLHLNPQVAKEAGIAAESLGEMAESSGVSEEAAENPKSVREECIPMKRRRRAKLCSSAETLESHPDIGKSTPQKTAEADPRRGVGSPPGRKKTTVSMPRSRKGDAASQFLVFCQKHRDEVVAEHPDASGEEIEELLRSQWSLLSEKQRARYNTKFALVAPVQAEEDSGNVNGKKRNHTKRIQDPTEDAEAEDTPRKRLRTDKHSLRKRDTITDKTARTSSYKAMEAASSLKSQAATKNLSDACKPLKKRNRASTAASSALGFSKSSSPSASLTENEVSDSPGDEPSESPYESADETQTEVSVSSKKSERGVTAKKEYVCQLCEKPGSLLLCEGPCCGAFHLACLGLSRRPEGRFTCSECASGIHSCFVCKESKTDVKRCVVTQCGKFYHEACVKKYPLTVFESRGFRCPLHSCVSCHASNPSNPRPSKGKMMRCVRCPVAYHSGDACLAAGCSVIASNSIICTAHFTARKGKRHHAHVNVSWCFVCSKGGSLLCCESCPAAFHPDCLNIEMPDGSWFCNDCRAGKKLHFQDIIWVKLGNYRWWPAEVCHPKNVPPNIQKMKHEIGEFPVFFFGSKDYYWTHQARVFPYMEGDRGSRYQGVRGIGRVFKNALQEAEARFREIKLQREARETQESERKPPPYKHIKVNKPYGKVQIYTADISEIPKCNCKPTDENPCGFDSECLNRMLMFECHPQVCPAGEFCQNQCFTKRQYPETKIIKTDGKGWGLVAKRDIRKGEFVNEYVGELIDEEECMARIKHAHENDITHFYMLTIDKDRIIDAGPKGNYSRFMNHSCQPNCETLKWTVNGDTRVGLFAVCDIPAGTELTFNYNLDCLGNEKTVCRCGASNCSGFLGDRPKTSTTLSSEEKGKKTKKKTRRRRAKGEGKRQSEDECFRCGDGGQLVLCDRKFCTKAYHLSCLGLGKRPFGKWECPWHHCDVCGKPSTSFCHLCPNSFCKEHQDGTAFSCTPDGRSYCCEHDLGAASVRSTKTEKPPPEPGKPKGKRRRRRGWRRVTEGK

[8] = inhibitors of HIV Env-driven cell fusion, dose response, cherry-pick (AID 652057); assay type: functional, cell-based
[9] = ZM109 Env clade C HIV-1 fusion inhibitors, dose response, HeLa effector, CEM target cells, luciferase, cherry-pick (AID 652058); assay type: functional, cell-based
[10] = off-target signal loss in HeLa-CEM21 co-culture – HeLa F-luc CTL cells, cherry-picked, counter-screen for HIV-1 Env fusion inhibitor project, dose response (AID 652040); assay type: functional, cell-based;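 note: potency for signal decrease marking cytotoxic or nonspecific inhibition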
[11] = NIH-3T3 fibroblast cytotoxicity, dose response, cytotoxicity control, cell-based, fluorescence, Alamar Blue, secondary assay (AID 2327); assay type: functional;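 note: NIH-3T3 mouse fibroblasts cultured with fluconazole at 8 µg/mL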
[12] = biological target: T3, RNA-binding protein pos-1 (Caenorhabditis elegans, UniProt G5EF15); test: inhibitors of POS-1/mex-3 RNA binding, dose response, biochemical, fluorescence polarization (AID 1964);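 note: purified POS-1 fused to maltose binding protein made in E. coli; potency of compounds blocking POS-1 binding to fluorescent RNA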
T3 sequence (G5EF15 whole entry): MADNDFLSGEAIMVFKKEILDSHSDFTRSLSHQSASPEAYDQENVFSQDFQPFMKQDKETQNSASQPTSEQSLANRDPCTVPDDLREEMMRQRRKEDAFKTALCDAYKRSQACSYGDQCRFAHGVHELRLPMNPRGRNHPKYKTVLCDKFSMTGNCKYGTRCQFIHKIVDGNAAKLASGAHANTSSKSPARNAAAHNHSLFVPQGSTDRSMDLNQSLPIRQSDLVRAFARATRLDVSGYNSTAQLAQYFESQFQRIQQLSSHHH

[13] = biological target: T4, Zinc finger protein mex-5 (Caenorhabditis elegans, UniProt Q9XUB2); test: MEX-5/TCR-2 RNA interaction inhibitors, dose response, biochemical, C. elegans, fluorescence polarization (AID 1960)
T4 sequence (Q9XUB2 whole entry): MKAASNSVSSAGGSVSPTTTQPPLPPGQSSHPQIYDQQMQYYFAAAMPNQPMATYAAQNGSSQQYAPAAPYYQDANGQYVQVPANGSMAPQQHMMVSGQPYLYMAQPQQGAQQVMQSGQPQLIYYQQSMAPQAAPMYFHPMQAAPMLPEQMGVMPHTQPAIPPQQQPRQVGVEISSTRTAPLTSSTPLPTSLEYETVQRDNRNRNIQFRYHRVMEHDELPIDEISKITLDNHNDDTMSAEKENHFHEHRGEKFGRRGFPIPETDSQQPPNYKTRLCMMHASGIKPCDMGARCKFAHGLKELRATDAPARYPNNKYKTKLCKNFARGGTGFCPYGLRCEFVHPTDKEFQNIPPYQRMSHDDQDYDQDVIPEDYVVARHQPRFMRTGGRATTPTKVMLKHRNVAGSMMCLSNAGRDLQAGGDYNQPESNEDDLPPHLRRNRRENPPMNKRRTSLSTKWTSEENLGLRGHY

[14] = C. albicans growth with fluconazole, confirmation, fluorescence, retest (AID 2467); assay type: functional, cell-based
Large T antigen = Large T antigen (Simian virus 40, UniProt P03070); assay type: functional, Betapolyomavirus macacae;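 note: Confirmatory-stage PubChem screen for compounds that inhibit SV40 T antigen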
Caspase-6 = biological target: T5, Caspase-6 (Homo sapiens, UniProt P55212); test: human caspase-6 inhibitors, dose response, biochemical, VEID-R110 fluorescence, cherry-pick (AID 720632)
T5 sequence (P55212 whole entry): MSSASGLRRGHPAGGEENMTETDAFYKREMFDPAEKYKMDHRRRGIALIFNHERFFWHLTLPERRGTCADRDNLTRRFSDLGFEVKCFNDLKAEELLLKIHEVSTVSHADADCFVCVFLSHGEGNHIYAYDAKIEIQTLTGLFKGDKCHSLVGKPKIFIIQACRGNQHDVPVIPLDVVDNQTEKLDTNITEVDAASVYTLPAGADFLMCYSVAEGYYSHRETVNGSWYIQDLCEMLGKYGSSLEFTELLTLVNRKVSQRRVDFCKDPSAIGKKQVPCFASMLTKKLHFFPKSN

[15] = cytotoxicity in HEK-293T cells, dose response, cytotoxicity control for BCR NF-kB inhibitor project, luminescence, B-cell screen hits (AID 489021); assay type: functional, cell-based;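 note: HEK-293T cells carrying an NF-kB luciferase reporter; cells exposed to compound for about 14 hours before viability readout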
H9c2 = test: cells; assay type: functional, cell-based; details: Rattus norvegicus, H9c2, Myocardium;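 note: confirmatory concentration-response retest of ultra-high-throughput screening hits for modulation of myocardial damage; cell death induced by hydrogen peroxide oxidative stress; compound pretreatment for 60 min then peroxide exposure for 2 h; potency is for protecting the cells against peroxide damage rather than for killing them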
[16] = inhibitors of PGC1a acetylation in cells, dose response, cell-based, cherry-picked samples (AID 720514); assay type: functional;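 note: potency may reflect raised or lowered acetylation signal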
[17] = biological target: T6, Tyrosyl-DNA phosphodiesterase 2 (Homo sapiens, UniProt O95551); test: human TDP2 enzyme inhibitors, dose response, biochemical, epi absorbance, IC50 (AID 743297)
T6 sequence (O95551 whole entry): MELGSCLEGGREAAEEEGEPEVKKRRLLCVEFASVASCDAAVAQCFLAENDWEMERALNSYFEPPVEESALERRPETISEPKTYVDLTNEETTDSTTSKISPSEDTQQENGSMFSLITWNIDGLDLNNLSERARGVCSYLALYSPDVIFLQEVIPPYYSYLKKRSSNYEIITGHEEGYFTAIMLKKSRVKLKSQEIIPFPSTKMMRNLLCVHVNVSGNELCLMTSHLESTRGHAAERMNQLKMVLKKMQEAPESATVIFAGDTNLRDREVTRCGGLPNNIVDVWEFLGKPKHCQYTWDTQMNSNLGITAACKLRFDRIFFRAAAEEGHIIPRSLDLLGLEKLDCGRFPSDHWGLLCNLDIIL

[18] = NIH:OVCAR-3 ovarian cancer cell cytotoxicity, dose response, PAX8 inhibitor project, plate reader, dry powder samples (AID 743044); assay type: functional, cell-based
[19] = IGROV1 ovarian cancer cell cytotoxicity, dose response, PAX8 inhibitor project, plate reader, dry powder samples (AID 743043); assay type: functional, cell-based; details: IGROV-1
[20] = cytotoxicity in OVCAR8 ovarian cancer cells, dose response, PAX8 project, cell-based, plate reader, dry powder samples (AID 743197); assay type: functional; details: OVCAR-8
[21] = P. falciparum Dd2 growth inhibitors, dose response, SYBR Green, dry powder samples, set 9 (AID 1159568); assay type: functional, cell-based
[22] = LGR2 antagonists, dose response, cell-based, HEK293, CRE-luciferase reporter, cherry pick, set 2 (AID 743343); assay type: functional;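 note: transfected cells were stimulated with diluted bursicon conditioned medium after compound addition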
[23] = MC4R antagonists, dose response, counter-screen for LGR2 antagonist project, cell-based, plate reader, cherry pick (AID 743444); assay type: functional;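 note: transfected HEK 293 cells stimulated with alpha-MSH peptide; potency of inhibitors of the alpha-MSH evoked signal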
Cytochrome P450 3A4 = Cytochrome P450 3A4 (Homo sapiens, UniProt P08684); details: Potency;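 note: confirmatory qHTS run detecting inhibitors and substrates of CYP3A4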

Cc1nnc(NC(=O)CSc2nc(C(C)C)nc3ccccc23)s1
IC50 [1]: > 69.5 µM (not active)
IC50 [2]: > 66 µM (inactive)
IC50 [3]: > 66 µM (inactive)
IC50 (Major prion protein): 1.83 µM (active)
IC50 (cells): > 138 µM (inactive)

COc1cc(-c2c(-c3cc(OC)c(OC)c(OC)c3)noc2C)ccc1F
IC50 [4]: 75.9 µM (inactive)
AC50 [5]: 21.3 µM (active)
AC50 (Paired box protein Pax-8): 2.78 µM (active)
AC50 [6]: 29.7 µM (active)

O=C1NC(=S)NC(=O)C1=NNc1cc(S(=O)(=O)Nc2ccc(Cl)cc2)ccc1Cl
AC50 [7]: > 20 µM (inactive)

Cc1cc(SC(C)C(=O)O)nc2ccccc12 (configuration not stated)
IC50 (Major prion protein): 8.85 µM (active)
IC50 (cells): > 138 µM (inactive)

CC(C)(C)n1nnnc1C(c1cccnc1)N(Cc1ccccc1)Cc1cccs1 (configuration not stated)
AC50 [8]: 5.51 µM (active)
AC50 [5]: 52.5 µM (active)
AC50 [9]: 7 µM (active)
AC50 [10]: 8.29 µM (active)
AC50 [6]: 17.5 µM (active)

CCOc1cc(/C=C2\C(=O)NN(c3ccccc3)C2=O)cc([N+](=O)[O-])c1O
EC50 [11]: > 160 µM (inactive)
EC50 [12]: 129 µM (active)
EC50 [13]: 36.2 µM (active)
EC50 [14]: > 38 µM (not active)
IC50 (Large T antigen): > 100 µM (active)
AC50 (Caspase-6): 36.8 µM (active)
AC50 [7]: > 20 µM (inactive)

COc1ccc(C(=O)Nc2cccc(NC(=O)c3ccc(OC)c(OC)c3)n2)cc1OC
IC50 [15]: > 80 µM (inactive)
IC50 (H9c2): > 79 µM (inactive)
AC50 [16]: 7.99 µM (active)

CCOc1ccc2nc(NCCNC(=O)Nc3ccccc3)c(C#N)cc2c1
AC50 [16]: 19.5 µM (active)

O=C(Nc1c(-c2ccc3c(c2)OCO3)[nH][nH]c1=O)c1ccccc1
AC50 (Caspase-6): 47.5 µM (active)
IC50 [17]: 9.43 µM (active)

COc1ccccc1NC(=O)N1CCCCN2[C@@H](CO)[C@@H](c3ccc(C#Cc4ccccc4)cc3)[C@@H]2C1
AC50 (Paired box protein Pax-8): 4.9 µM (active)
AC50 [18]: 19.3 µM (active)
AC50 [19]: 39 µM (active)
AC50 [20]: 35 µM (active)

CCOC(=O)N1CCN(C(=O)C[C@H]2C[C@@]3(C(=O)OC)C(=C[C@H](C(C)(C)C)O[C@@H]3C)N(CCC3=CCCCC3)C2=O)CC1
AC50 [8]: 2.49 µM (active)
AC50 [5]: 25.6 µM (active)
AC50 [9]: 3.45 µM (active)
AC50 [10]: 4.21 µM (active)
AC50 [6]: 3.46 µM (active)

C[C@H]1CCCCO[C@@H](CN(C)Cc2ccc(C(F)(F)F)cc2)[C@@H](C)CN([C@@H](C)CO)C(=O)c2cc(NS(=O)(=O)c3ccc(F)cc3)ccc2O1
AC50 (Paired box protein Pax-8): 6.82 µM (active)
AC50 [18]: 34.2 µM (active)
AC50 [19]: 39.4 µM (active)
AC50 [20]: 51.3 µM (active)

N#C[C@@H]1[C@H](c2ccccc2C2=CCCC2)[C@H](CO)N1C(=O)C1CCOCC1
AC50 [21]: > 39 µM (inactive)

COc1ccc(/C=C/C(=O)Nc2ccccc2C(=O)O)cc1OC
AC50 [22]: 0.587 µM (active)
AC50 [23]: 0.594 µM (active)
AC50 (Cytochrome P450 3A4): 10 µM (inconclusive)
